Blank lines part the entries; values can stand above or below the molecule they belong to.
What was measured:
COX-1 [1] = target: T1, COX-1 (Homo sapiens, UniProt P23219); experiment: Assay of COX-1 Activity from U937 Cell Microsomes (U937); type: biochemical; set-up: human U-937 cells (which specifically express COX-1); endogenous in cells; host or cells: microsomes of U937 cells; conditions: U937, PGE2; Table III
Method: Compounds are tested as inhibitors of cyclooxygenase activity in whole cell cyclooxygenase assays. Both of these assays measure prostaglandin E2 synthesis in response to arachidonic acid, using a radioimmunoassay. Cells used for these assays are human osteosarcoma 143 cells (which specifically express COX-2) and human U-937 cells (which specifically express COX-1). In these assays, 100% activity is defined as the difference between prostaglandin E2 synthesis in the absence and presence of arachidonate.
For cyclooxygenase assays, osteosarcoma cells are cultured in 1 mL of media in 24-well multidishes (Nunclon) until confluent (1-2×10^5 cells/well). […] All assays are performed in triplicate. […] Arachidonic acid (peroxide-free, Cayman Chemical) is prepared as a 10 mM stock solution in ethanol and further diluted 10-fold in HBSS. An aliquot of 10 μL of this diluted solution is added to the cells to give a final arachidonic acid concentration of 10 μM. Control samples are incubated with ethanol vehicle instead of arachidonic acid. Samples are again gently mixed and incubated for a further 10 min. at 37° C. For osteosarcoma cells, reactions are then stopped by the addition of 100 μL of 1N HCl, with mixing and by the rapid removal of the solution from cell monolayers. For U-937 cells, reactions are stopped by the addition of 100 μL of 1N HCl, with mixing.
U 937 cells are pelleted by centrifugation at 500×g for 5 min and washed once with phosphate-buffered saline and repelleted. Cells are resuspended in homogenization buffer consisting of 0.1 M Tris-HCl, pH 7.4, 10 mM EDTA, 2 μg/ml leupeptin, 2 μg/ml soybean trypsin inhibitor, 2 μg/ml aprotinin and 1 mM phenyl methyl sulfonyl fluoride. The cell suspension is sonicated 4 times for 10 sec and is centrifuged at 10,000×g for 10 min at 4° C. The supernatant is centrifuged at 100,000×g for 1 hr at 4° C. The 100,000×g microsomal pellet is resuspended in 0.1 M Tris-HCl, pH 7.4, 10 mM EDTA to approximately 7 mg protein/ml and stored at -80° C.
Assays are performed in duplicate in a final volume of 250 μl. […]

CHO [hCOX-1] = target: T2, CHO [hCOX-1] (Homo sapiens, UniProt P23219); experiment: Whole Cell Assay for COX-1 using CHO Transfected Cell Lines; type: cell-based; conditions: CHO [hCOX-1] cells, 0.5 μM AA, PGE2
T2 construct: expressed in transfected cells; host or cells: Chinese hamster ovary (CHO) cells, vector pCDNAIII
Method: Chinese hamster ovary (CHO) cell lines which have been stably transfected with an eukaryotic expression vector pCDNAIII containing either the human COX-1 or COX-2 cDNA's are used for the assay. These cell lines are referred to as CHO [hCOX-1] and CHO [hCOX-2], respectively. […] Cells (0.3×10^6 cells in 200 μl) are preincubated with 3 μl of the test drug or DMSO vehicle for 15 min at 37° C. […] Cells are then challenged in the presence or absence of drug with the AA/HBSS solution to yield a final concentration of 0.5 μM AA in the CHO[hCOX-1] assay and a final concentration of 10 μM AA in the CHO[hCOX-2] assay. […] The samples are centrifuged at 300×g at 4° C. for 10 min, and an aliquot of the clarified supernatant is appropriately diluted for the determination of PGE2 levels using an enzyme-linked immunoassay for PGE2 (Correlate PGE2 enzyme immunoassay kit, Assay Designs, Inc.). Cyclooxygenase activity in the absence of test compounds is determined as the difference in PGE2 levels of cells challenged with arachidonic acid versus the PGE2 levels in cells mock-challenged with ethanol vehicle. Inhibition of PGE2 synthesis by test compounds is calculated as a percentage of the activity in the presence of drug versus the activity in the positive control samples.

COX-1 [2] = target: T1, COX-1; experiment: Human Whole Blood Assay, COX-1 (Clotting-induced TxB2 Production); type: cell-based; set-up: endogenous in cells; conditions: clotting-induced TxB2, 1 hour, Table III, read-out: COX-1 (IC50) HWB
Excerpt: As well, platelets in whole blood contain a large amount of the COX-1 enzyme. Immediately following blood clotting, platelets are activated through a thrombin-mediated mechanism. […] Therefore, the degree of selectivity by the test compound can be determined by measuring the levels of PGE2 after LPS induction (COX-2) and TxB2 following blood clotting (COX-1) in the same assay.
B. COX-1 (Clotting-induced TxB2 Production)
Fresh blood is collected into vacutainers containing no anticoagulants. Aliquots of 500 μL are immediately transferred to siliconized microcentrifuge tubes preloaded with 2 μL of either DMSO or a test compound at final concentrations varying from 10 nM to 30 μM. The tubes are vortexed and incubated at 37° C. for 1 hour to allow blood to clot. At the end of incubation, serum is obtained by centrifugation (12,000×g for 5 min.). A 100 μL aliquot of serum is mixed with 400 μL of methanol for protein precipitation.

[3] = test system: carrageenan-induced paw edema; experiment: Rat Paw Edema Assay; type: in vivo, Male Sprague-Dawley rats; conditions: po, paw volume 3 hr, Table IV
Method: Male Sprague-Dawley rats (150-200 g) are fasted overnight and are given, po, either vehicle (1% methocel or 5% Tween 80) or a test compound. One hr later, a line is drawn using a permanent marker at the level above the ankle in one hind paw to define the area of the paw to be monitored. The paw volume (V0) is measured using a plethysmometer (Ugo-Basile, Italy) based on the principle of water displacement. The animals are then injected subplantarly with 50 μl of 1% carrageenan solution in saline (FMC Corp, Maine) into the paw using an insulin syringe with a 25-gauge needle (i.e. 500 μg carrageenan per paw). Three hr later, the paw volume (V3) is measured and the increases in paw volume (V3 -VO) are calculated. The animals are sacrificed by CO2 asphyxiation and the absence or presence of stomach lesions scored. Data is compared with the vehicle-control values and percent inhibition calculated. All treatment groups are coded to eliminate observer bias.

T1 sequence (P23219 24-599): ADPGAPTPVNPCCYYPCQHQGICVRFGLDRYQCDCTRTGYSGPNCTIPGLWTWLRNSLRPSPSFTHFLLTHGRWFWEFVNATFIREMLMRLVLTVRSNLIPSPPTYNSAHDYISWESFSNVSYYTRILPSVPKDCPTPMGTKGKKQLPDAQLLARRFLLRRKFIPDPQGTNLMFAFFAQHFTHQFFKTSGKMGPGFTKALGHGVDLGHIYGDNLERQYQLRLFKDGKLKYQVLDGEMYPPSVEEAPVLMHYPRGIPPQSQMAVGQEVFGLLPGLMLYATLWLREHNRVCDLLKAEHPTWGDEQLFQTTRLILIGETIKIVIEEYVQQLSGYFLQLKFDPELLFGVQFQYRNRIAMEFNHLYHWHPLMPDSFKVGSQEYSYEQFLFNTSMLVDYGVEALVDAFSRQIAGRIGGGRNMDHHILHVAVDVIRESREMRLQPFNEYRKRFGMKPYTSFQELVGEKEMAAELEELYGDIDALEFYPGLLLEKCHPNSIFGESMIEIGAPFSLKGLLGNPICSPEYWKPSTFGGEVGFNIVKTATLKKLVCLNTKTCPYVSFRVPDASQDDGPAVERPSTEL
T2 sequence (P23219 24-599): as above

Structure (SMILES): CC1(C)OC(=O)C(Oc2cc(F)cc(F)c2)=C1c1ccc(S(C)(=O)=O)cc1 [Example 3]
- IC50 (COX-1 [1]): 1 µM

Structure (SMILES): CS(=O)(=O)c1ccc(C2=C(Sc3ccccc3)C(=O)OC2)cc1 [Example 15, 3-Phenylthio-4-(4-(methylsulfonyl)phenyl)-5H-furan-2-one]
- IC50 (COX-1 [1]): > 10 µM

Structure (SMILES): CC1(C)OC(=O)C(Oc2ccc(Cl)cc2)=C1c1ccc(S(C)(=O)=O)cc1 [Example 6, 3-(4-Chlorophenoxy)-5,5-dimethyl-4-(4-(methylsulfonyl)phenyl)-5H-furan-2-one]
- IC50 (COX-1 [2]): 1.8 µM

Structure (SMILES): CC1(C)OC(=O)C(Oc2cccc(F)c2)=C1c1ccc(S(C)(=O)=O)cc1 [Example 2, 3-(3-Fluorophenoxy)-5,5-dimethyl-4-(4-(methylsulfonyl)phenyl)-5H-furan-2-one]
- IC50 (COX-1 [2]): 23 µM

Structure (SMILES): CC1(C)OC(=O)C(Oc2ccc(F)cn2)=C1c1ccc(S(C)(=O)=O)cc1 [Example 58]
- ED50 [3]: 0.32 mg/kg
- IC50 (CHO [hCOX-1]; Table IV): > 50 µM

Next, values leading:

- IC50 (COX-1 [1]): 3 µM
Structure (SMILES): CC1(C)OC(=O)C(Oc2ccc(Cl)cn2)=C1c1ccc(S(C)(=O)=O)cc1 [Example 25, 3-(5-Chloro-2-pyridyloxy)-5,5-dimethyl-4-(4-(methylsulfonyl)phenyl)-5H-furan-2-one]

- IC50 (CHO [hCOX-1]; Table IV): > 50 µM
Structure (SMILES): CC1(C)OC(=O)C(Oc2ccc(Br)cn2)=C1c1ccc(S(C)(=O)=O)cc1 [Example 108]

- IC50 (CHO [hCOX-1]; Table III): > 50 µM
Structure (SMILES): CC1(C)OC(=O)C(C(=O)c2ccccc2)=C1c1ccc(S(C)(=O)=O)cc1 [Example 19b, 3-Benzoyl-5,5-dimethyl-4-(4-(methylsulfonyl)phenyl)-5H-furan-2-one]

— patent US6020343A, “(Methylsulfonyl)phenyl-2-(5H)-furanones as COX-2 inhibitors” (Merck Frosst Canada, Inc., priority 1998, dated 2000)
